This is an account of results in ChEMBL document CHEMBL5465560, “Selectivity Literature for EUbOPEN Chemogenomic Library” (2024).

The test system of assay [1] is Mast/stem cell growth factor receptor Kit (Homo sapiens), P10721 [V559D]. To be noted: at 10 µM.
For assay [2], the target named is Mitogen-activated protein kinase 1 (Homo sapiens, UniProt P28482). Description: Selectivity interaction (KinomeScan (DiscoverX)) EUB0000695a MAPK1. The note with it: at 100 nM.
In assay [3] the target is Dual specificity tyrosine-phosphorylation-regulated kinase 1B (Homo sapiens, UniProt Q9Y463). In words: Selectivity interaction (KinomeScan (DiscoverX)) EUB0000666a DYRK1B. To be noted: at 10 µM.
Assay [4] has as its target Ephrin type-A receptor 5 (Homo sapiens) (UniProt P54756). Description: Selectivity interaction (SelectScreen profiling (Invitrogen)) EUB0000607a EPHA5. To be noted: at 2 µM.
Assay [5] concerns the target T1, Serine/threonine-protein kinase ULK3 (Homo sapiens) (UniProt Q6PHR2).
T1 sequence (whole entry): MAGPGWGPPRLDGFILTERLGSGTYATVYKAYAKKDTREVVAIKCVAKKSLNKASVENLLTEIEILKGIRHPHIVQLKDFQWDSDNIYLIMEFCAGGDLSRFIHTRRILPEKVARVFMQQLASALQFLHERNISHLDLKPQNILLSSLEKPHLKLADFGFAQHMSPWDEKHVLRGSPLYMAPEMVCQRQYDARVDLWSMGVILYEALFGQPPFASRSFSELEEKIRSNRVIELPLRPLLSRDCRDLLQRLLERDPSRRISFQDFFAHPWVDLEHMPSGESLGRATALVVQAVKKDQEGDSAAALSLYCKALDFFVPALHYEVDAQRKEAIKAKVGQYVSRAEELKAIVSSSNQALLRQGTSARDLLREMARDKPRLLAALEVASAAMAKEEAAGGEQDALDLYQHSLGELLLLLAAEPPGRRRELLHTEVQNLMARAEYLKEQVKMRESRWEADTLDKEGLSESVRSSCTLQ
In words: Selectivity interaction (KinomeScan (DiscoverX)) EUB0001550a ULK3. The note with it: at 1 µM.

Assay [6] deals with Protein-tyrosine kinase 2-beta (Homo sapiens) (UniProt Q14289). In words: Selectivity interaction (Kinase screening (Nanosyn)) EUB0000604a PTK2B.
The target of assay [7] is T2, Scaffold protein ILK (Homo sapiens) (UniProt Q13418).
T2 sequence (whole entry): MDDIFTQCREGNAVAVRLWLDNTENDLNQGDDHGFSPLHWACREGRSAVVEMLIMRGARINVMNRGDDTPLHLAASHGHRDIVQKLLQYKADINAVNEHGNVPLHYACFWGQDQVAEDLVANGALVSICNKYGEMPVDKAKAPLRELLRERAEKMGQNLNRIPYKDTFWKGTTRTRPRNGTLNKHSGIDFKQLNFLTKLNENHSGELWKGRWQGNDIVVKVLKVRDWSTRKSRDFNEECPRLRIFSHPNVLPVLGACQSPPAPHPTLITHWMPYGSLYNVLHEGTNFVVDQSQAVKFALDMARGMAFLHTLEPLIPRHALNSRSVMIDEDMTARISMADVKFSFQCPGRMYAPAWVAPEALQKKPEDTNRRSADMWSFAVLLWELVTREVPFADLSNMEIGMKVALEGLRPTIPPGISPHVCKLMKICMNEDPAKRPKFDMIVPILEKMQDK
Description: Selectivity interaction (ActivX KiNativ screen (kinase selectivity in THP-1 cell lysates)) EUB0000639a ILK. It counts as subcellular. The note with it: lysate.

For assay [8], the target named is Tyrosine-protein kinase Fer (Homo sapiens) (UniProt P16591). In words: Selectivity interaction (Ambit KINOMEscan and KiNATiv profiling in Jurkat cells) EUB0000090b FER. It counts as cell-based. To be noted: at 1 µM.
Assay [9] has as its target T3, Mitogen-activated protein kinase 15 (Homo sapiens) (UniProt Q8TD08).
T3 sequence (whole entry): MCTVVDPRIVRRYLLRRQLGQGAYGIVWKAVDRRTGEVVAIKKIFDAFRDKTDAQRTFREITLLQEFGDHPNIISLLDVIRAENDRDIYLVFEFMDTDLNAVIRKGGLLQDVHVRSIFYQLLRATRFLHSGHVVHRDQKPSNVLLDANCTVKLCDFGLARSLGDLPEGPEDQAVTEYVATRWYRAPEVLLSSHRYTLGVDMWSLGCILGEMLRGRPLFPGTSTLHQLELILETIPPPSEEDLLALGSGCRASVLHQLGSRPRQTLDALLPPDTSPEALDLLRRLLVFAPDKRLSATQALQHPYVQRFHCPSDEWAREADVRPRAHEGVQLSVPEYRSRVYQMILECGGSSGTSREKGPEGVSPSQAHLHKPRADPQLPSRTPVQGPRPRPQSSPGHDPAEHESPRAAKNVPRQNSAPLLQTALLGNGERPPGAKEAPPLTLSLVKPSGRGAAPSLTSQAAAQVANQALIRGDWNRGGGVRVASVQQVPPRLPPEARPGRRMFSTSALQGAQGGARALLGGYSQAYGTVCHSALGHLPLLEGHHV
In words: Selectivity interaction (KinomeScan (DiscoverX)) EUB0001049a MAPK15. The note with it: at 1 µM.

For assay [10], the target named is Serine/threonine-protein kinase 26 (Homo sapiens, UniProt Q9P289). In words: Selectivity interaction (KinomeScan (DiscoverX)) EUB0001868a STK26. The note with it: at 1 µM.
Assay [11] deals with Bromodomain and WD repeat-containing protein 1 (Homo sapiens) (UniProt Q9NSI6). In words: Selectivity interaction (Bromodomain panel (DSF asssay)) EUB0000270b BRWD1.
Assay [12] has as its target T4, Mitogen-activated protein kinase kinase kinase 3 (Homo sapiens) (UniProt Q99759).
T4 sequence (whole entry): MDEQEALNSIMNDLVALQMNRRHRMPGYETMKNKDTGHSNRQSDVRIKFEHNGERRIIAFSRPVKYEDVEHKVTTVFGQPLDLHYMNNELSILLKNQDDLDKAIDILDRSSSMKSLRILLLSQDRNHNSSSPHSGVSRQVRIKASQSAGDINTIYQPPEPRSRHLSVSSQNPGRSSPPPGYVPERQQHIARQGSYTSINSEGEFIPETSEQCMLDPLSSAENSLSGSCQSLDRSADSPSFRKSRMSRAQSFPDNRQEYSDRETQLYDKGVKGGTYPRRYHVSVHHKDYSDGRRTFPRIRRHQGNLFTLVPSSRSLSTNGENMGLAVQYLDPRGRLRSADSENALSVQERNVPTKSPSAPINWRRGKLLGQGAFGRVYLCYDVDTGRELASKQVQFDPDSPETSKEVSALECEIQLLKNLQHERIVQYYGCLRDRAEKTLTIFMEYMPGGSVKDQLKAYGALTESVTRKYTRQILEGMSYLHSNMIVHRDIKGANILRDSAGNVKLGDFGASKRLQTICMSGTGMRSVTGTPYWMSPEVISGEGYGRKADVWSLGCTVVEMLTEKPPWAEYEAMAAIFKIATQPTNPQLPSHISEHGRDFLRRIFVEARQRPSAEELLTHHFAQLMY
In words: Selectivity interaction (Kinase panel (KiNativ target engagement assay in Jurkat cells)) EUB0001635a MAP3K3. The class given is cell-based. The note with it: Selectivity number of off-targets 0.0, Selectivity number of targets 233.0, Source Knowledge https://www.sciencedirect.com/science/article/pii/S2451945619300674?via%3Dihub, at 1 µM.

The structures appear in SMILES notation.

Mast/stem cell growth factor receptor Kit (Homo sapiens), P10721 [V559D], sequence (P10721 whole entry V559D): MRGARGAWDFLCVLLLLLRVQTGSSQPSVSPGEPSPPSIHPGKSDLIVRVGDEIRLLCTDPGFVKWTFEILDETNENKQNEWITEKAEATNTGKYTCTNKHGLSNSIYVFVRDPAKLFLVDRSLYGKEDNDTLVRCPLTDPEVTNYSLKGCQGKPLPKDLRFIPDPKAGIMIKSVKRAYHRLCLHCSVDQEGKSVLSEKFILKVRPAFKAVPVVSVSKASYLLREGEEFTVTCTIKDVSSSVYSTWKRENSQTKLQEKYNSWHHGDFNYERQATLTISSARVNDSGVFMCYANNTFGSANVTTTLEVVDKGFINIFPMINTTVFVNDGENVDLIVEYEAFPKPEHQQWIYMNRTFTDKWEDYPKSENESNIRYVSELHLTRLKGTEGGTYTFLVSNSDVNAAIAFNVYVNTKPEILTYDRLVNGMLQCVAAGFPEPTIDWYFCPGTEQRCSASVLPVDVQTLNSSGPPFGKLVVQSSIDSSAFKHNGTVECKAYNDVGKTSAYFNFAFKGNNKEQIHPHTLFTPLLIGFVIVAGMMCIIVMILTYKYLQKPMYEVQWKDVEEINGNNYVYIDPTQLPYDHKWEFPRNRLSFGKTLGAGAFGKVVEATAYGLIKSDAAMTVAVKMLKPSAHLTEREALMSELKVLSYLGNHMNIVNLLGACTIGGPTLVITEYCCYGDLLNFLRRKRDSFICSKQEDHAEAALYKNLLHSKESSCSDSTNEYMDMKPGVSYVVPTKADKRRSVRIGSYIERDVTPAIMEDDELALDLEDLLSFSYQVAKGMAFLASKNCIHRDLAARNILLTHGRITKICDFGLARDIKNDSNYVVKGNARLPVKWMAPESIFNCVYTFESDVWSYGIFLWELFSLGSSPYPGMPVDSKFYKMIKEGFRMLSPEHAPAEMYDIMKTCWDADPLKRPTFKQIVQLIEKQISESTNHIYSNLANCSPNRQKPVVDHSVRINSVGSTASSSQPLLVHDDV
Bromodomain and WD repeat-containing protein 1 (Homo sapiens), sequence (Q9NSI6 whole entry): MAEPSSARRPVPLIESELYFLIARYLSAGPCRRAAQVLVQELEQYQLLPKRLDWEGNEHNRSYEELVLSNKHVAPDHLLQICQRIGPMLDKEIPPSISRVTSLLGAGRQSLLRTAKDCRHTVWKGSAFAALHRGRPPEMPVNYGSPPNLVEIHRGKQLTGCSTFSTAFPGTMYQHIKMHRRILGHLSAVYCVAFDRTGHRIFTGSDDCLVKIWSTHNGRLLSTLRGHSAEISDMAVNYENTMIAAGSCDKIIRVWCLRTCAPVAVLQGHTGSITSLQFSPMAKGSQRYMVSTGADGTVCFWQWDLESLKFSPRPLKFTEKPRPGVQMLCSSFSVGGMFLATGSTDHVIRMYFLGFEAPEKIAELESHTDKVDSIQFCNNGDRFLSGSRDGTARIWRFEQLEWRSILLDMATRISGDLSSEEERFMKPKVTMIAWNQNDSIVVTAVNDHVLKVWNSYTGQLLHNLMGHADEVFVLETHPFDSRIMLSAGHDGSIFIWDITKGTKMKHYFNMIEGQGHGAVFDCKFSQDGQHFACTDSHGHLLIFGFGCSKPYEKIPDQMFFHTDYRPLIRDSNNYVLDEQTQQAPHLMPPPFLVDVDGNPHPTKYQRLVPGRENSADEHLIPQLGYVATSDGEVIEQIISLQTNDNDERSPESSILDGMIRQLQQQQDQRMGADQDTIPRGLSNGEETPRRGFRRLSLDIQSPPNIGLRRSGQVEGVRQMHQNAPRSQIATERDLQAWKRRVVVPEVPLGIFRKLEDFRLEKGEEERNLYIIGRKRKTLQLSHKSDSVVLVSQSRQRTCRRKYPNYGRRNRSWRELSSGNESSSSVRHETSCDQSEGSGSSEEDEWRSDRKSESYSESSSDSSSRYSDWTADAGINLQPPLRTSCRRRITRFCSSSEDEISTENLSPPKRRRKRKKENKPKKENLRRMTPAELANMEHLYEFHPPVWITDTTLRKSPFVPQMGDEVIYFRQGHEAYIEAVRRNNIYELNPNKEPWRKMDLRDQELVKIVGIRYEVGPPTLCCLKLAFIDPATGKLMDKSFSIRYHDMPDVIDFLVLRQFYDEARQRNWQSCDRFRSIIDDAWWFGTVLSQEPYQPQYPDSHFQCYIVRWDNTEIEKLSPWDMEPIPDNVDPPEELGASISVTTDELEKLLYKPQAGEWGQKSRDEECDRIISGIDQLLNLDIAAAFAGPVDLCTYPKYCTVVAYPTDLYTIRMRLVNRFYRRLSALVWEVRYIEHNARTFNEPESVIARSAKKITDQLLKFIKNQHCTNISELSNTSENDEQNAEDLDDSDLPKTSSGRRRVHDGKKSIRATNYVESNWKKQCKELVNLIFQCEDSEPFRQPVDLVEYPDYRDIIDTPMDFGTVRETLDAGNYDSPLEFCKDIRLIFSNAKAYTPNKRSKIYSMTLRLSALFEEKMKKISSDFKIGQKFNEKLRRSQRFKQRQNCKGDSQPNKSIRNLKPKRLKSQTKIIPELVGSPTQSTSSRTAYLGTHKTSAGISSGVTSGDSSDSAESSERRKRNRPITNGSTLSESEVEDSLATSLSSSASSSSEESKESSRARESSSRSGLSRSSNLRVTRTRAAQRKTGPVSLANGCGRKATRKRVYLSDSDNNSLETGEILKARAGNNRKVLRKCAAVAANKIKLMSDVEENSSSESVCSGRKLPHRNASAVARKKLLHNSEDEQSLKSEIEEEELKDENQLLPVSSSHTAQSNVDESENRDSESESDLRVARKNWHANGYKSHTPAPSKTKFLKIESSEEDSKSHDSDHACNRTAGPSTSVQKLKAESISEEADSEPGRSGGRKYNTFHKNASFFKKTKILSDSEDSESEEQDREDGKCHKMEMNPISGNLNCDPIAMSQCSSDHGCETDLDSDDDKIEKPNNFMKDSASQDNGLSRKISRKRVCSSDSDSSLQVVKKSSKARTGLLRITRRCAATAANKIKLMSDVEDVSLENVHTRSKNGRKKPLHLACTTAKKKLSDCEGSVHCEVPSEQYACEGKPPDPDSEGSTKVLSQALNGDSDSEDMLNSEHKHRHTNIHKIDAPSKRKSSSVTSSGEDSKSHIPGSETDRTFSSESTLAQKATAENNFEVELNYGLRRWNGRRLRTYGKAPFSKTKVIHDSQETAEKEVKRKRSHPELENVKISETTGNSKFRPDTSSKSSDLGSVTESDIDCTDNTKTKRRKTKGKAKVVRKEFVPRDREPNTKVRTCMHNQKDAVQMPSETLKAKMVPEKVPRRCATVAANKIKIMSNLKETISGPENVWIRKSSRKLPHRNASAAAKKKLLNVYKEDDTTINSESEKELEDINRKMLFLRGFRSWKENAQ
Protein-tyrosine kinase 2-beta (Homo sapiens), sequence (Q14289 whole entry, looked up): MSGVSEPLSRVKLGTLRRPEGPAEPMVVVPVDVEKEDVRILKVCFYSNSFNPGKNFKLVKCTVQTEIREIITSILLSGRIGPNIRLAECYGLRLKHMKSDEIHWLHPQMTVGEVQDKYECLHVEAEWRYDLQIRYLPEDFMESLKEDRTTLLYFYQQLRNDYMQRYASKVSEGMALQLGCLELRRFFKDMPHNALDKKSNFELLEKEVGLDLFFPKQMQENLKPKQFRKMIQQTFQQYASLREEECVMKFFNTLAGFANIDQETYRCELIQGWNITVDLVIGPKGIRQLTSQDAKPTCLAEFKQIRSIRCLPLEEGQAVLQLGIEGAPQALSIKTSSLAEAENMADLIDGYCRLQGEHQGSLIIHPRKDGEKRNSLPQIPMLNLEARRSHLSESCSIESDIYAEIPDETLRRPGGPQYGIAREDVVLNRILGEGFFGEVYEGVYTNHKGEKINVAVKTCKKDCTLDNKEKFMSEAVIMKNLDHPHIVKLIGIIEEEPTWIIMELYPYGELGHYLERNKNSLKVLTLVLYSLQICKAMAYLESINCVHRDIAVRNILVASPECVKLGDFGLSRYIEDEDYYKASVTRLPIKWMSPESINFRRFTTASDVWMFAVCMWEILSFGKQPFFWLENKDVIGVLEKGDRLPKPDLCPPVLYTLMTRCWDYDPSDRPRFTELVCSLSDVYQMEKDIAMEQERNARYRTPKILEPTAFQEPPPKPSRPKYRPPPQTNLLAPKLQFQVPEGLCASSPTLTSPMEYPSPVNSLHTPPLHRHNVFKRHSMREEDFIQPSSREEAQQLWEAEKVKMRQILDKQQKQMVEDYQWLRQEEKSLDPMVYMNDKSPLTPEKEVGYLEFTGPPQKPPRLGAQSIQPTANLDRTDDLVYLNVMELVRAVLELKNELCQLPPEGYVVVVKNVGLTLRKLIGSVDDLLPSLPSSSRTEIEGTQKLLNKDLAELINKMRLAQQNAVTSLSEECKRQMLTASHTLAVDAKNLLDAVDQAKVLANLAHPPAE
Mitogen-activated protein kinase 1, sequence (P28482 whole entry): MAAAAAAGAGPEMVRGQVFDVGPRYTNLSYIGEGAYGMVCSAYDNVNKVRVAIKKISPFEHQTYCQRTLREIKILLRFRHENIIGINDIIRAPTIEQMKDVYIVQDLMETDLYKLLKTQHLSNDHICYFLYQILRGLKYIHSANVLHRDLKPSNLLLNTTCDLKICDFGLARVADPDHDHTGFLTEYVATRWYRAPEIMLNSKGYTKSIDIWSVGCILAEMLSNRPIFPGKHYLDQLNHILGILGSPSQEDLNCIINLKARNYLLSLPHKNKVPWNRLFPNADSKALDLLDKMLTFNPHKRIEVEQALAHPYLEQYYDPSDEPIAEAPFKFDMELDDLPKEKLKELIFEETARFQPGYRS
Serine/threonine-protein kinase 26, sequence (Q9P289 2-416 limits assumed): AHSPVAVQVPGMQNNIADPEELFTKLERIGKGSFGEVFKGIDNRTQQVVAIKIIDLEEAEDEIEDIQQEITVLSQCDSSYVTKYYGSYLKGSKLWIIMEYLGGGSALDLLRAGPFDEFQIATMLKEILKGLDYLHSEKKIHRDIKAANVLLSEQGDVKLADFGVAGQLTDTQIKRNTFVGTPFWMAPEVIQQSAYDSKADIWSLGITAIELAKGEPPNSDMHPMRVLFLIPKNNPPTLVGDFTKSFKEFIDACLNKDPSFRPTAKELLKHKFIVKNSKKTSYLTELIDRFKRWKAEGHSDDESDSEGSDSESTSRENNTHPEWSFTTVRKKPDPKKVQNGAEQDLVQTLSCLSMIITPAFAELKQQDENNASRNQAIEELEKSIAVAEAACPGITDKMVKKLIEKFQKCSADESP

The molecule `CCN(CC)CCCCNc1ncc2cc(-c3cc(OC)cc(OC)c3)c(NC(=O)NC(C)(C)C)nc2n1` showed a % of control in assay [1] of 100%.

Regarding `Cc1cc(F)c(C(=O)Nc2cccc(-c3nncn3C(C)C)n2)cc1-n1cnc(C2CC2)c1`, in assay [2], the % of control was determined as 98%.

Take `O=C(NOC[C@H](O)CO)c1ccc(F)c(F)c1Nc1ccc(I)cc1F`: the % of control in assay [3] amounted to 98%.

For `CNC(=O)Nc1ccc(-c2nc(N3CC4CCC(C3)O4)c3cnn(C4CCC5(CC4)OCCO5)c3n2)cc1`, the % of inhibition in assay [4] was 2%.

With `CN(C)CC#Cc1ccc2[nH]c3c(c2c1)-c1nc(N)ncc1CCC3`, the % of control in [5] is 11%.

As to `Cc1cnc(Nc2ccc(F)cc2Cl)nc1-c1c[nH]c(C(=O)N[C@H](CO)c2cccc(Cl)c2)c1`, the % of inhibition in [6] was 6%.

`CC[C@@H]1[C@H](F)C(=O)N[C@@H]1COc1nccc2cc(C(N)=O)c(OC)cc12` [ZIMLOVISERTIB]: the % of inhibition in assay [7] (at 0.01 µM) is 6.6%; in assay [7] (at 0.04 µM) it was 1.4%; in [7] (at 0.2 µM), 11.2%; in [7] (at 1 µM) it was 7.8%; in assay [7] (at 5 µM), -3.7%.

In assay [8], `CN(C)C/C=C/C(=O)Nc1ccc(C(=O)N2CCCC(Nc3ncc(Cl)c(-c4c[nH]c5ccccc45)n3)C2)cc1` (stereo unspecified) gave a % of control of 82%.

For the molecule `COc1cc(Nc2nc(C)cc(-c3cnn4nc(OC)ccc34)n2)cc(C(F)(F)F)c1`, the % of control in assay [9] amounted to 96%.

The molecule `Cc1cc(-c2ccnc(Nc3cnn(C)c3)n2)ccc1CNC(=O)N1CC(OC(C)C)C1` came in with a % of control in [10] of 42%.

As for `Cc1cc(CN)cc(C)c1-c1ncn(C)c1-c1cncn1C`, the dTM in assay [11] is -1.1 K.

With `C=CC(=O)Nc1ccc(C(=O)Nc2[nH]nc3c2CN(C(=O)N[C@H](CN(C)C)c2ccccc2)C3(C)C)cc1`, the % of engagement in [12] came to 4.7%.
